Assays:
[1] = biological target: Nucleosome-remodeling factor subunit BPTF (Homo sapiens) (UniProt Q12830); conditions: dose 10.0 µM
[2] = biological target: KV channel (voltage-gated potassium channel family) (Homo sapiens, UniProt O43525+O43526+O95259+P16389+P17658+P22001+P22459+P22460+P48547+P51787+P56696+Q03721+Q09470+Q12809+Q14003+Q14721+Q16322+Q6PIU1+Q8NCM2+Q8TAE7+Q8TDN1+Q8TDN2+Q92953+Q96KK3+Q96L42+Q96PR1+Q96RP8+Q9BQ31+Q9H252+Q9H3M0+Q9NR82+Q9NS40+Q9NSA2+Q9NZV8+Q9UIX4+Q9UJ96+Q9UK17+Q9ULD8+Q9ULS6+Q9UQ05); test: Binding affinity to KV channel (unknown origin) assessed as specific binding at 10 uM relative to control; format: protein assay; conditions: read-out: Activity
[3] = biological target: Bromodomain-containing protein 4 (Homo sapiens) (UniProt O60885); test: Binding affinity to BRD4 BD1 (unknown origin) assessed as change in entropy TdeltaS at 14 uM by Isothermal titration calorimetry
[4] = biological target: Beta-1 adrenergic receptor (Homo sapiens) (UniProt P08588); test: Binding affinity to Beta1 (unknown origin) assessed as specific binding at 10 uM relative to control
Homo sapiens [5] = organism: Homo sapiens; conditions: dose 10.0 µM
[6] = biological target: Bromodomain-containing protein 2 (Homo sapiens) (UniProt P25440); conditions: dose 10.0 µM
[7] = biological target: T1, Bromodomain-containing protein 1 (Homo sapiens) (UniProt O95696); test: Binding affinity to BRPF2 (unknown origin) assessed as change in entropy TdeltaS at 12 uM by Isothermal titration calorimetry
T1 sequence (whole entry): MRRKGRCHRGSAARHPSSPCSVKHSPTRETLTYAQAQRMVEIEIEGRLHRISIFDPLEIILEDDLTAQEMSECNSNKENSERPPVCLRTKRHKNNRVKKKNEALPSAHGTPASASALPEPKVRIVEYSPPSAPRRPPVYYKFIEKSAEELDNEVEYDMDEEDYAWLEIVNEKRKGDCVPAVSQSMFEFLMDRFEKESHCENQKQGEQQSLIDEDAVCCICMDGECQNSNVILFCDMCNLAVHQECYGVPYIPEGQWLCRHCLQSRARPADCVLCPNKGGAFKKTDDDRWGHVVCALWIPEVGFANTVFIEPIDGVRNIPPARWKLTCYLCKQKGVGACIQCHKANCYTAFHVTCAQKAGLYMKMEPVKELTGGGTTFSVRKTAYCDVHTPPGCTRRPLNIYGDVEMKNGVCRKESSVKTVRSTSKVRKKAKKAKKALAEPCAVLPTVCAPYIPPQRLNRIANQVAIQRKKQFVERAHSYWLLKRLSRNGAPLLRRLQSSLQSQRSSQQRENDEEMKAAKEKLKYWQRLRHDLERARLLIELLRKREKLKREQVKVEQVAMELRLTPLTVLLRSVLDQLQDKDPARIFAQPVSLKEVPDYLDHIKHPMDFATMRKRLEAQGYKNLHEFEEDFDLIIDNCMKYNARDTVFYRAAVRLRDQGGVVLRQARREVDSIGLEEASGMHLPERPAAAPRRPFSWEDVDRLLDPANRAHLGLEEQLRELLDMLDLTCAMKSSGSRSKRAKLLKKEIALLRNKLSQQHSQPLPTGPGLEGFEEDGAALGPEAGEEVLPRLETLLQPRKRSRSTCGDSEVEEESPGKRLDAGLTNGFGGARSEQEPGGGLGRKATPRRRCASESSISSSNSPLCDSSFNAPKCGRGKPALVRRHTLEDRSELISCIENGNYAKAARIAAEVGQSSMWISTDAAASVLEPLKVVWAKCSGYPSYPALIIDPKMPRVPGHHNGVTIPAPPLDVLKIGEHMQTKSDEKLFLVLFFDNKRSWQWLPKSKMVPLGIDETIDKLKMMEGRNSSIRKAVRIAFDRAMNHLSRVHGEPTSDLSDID

Homo sapiens [8] = organism: Homo sapiens; test: Binding affinity to Cl channel GABA gated receptor (unknown origin) assessed as specific binding at 10 uM relative to control
[9] = biological target: T1, Bromodomain-containing protein 1 (Homo sapiens); test: Binding affinity to BRPF2 (unknown origin) assessed as change in entropy at 12 uM by Isothermal titration calorimetry
[10] = biological target: Histone-lysine N-methyltransferase ASH1L (Homo sapiens) (UniProt Q9NR48); conditions: dose 10.0 µM
[11] = biological target: ATPase family AAA domain-containing protein 2 (Homo sapiens) (UniProt Q6PL18); conditions: dose 10.0 µM
[12] = biological target: Bromodomain-containing protein 7 (Homo sapiens) (UniProt Q9NPI1); conditions: dose 10.0 µM
[13] = biological target: Bromodomain-containing protein 9 (Homo sapiens) (UniProt Q9H8M2); conditions: dose 10.0 µM
[14] = biological target: Bromodomain-containing protein 4 (Homo sapiens) (UniProt O60885); test: Binding affinity to BRD4 BD1 (unknown origin) assessed as change in gibbs free energy at 14 uM by Isothermal titration calorimetry
[15] = biological target: Bromodomain and PHD finger-containing protein 3 (Homo sapiens, UniProt Q9ULD4); test: Inhibition of BRPF3 (unknown origin) incubated for 60 mins by alphascreen competitive assay
[16] = biological target: Protein polybromo-1 (Homo sapiens) (UniProt Q86U86); conditions: dose 10.0 µM
[17] = biological target: Chromatin remodeling regulator CECR2 (Homo sapiens) (UniProt Q9BXF3); conditions: dose 10.0 µM

Chain of Bromodomain-containing protein 9 (Homo sapiens) (Q9H8M2 whole entry): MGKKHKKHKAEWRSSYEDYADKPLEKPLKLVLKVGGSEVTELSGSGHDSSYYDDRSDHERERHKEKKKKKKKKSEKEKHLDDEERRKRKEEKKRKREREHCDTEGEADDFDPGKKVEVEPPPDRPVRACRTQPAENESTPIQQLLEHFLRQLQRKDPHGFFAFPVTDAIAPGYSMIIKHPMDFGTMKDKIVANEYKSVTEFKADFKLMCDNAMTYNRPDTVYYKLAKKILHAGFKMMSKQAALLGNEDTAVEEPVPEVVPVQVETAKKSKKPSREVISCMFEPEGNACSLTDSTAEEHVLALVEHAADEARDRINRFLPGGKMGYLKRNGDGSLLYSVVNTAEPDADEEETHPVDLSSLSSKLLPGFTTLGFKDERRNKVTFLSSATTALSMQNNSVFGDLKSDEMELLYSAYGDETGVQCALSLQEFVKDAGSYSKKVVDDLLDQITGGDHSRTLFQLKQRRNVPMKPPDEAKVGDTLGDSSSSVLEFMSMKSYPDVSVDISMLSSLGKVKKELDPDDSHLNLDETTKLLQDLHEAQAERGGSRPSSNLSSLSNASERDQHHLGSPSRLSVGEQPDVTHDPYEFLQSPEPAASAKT
Chain of Bromodomain-containing protein 7 (Homo sapiens) (Q9NPI1 whole entry): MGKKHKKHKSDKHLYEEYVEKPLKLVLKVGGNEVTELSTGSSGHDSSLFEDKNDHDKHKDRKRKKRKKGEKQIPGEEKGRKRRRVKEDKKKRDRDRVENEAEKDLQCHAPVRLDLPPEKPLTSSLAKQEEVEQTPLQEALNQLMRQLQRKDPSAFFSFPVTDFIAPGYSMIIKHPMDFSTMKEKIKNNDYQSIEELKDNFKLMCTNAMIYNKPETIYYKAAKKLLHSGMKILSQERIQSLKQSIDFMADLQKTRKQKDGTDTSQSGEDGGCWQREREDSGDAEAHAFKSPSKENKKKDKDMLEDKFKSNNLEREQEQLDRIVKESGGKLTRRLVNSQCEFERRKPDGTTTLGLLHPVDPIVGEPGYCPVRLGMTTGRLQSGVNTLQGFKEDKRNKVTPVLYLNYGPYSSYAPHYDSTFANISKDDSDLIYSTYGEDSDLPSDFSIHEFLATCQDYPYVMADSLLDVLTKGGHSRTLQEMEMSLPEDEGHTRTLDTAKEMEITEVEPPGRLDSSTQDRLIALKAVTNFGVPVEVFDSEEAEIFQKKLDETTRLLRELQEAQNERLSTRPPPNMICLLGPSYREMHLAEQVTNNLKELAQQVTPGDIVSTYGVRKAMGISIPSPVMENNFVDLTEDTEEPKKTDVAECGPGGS
Chain of Bromodomain-containing protein 2 (Homo sapiens) (P25440 whole entry, looked up): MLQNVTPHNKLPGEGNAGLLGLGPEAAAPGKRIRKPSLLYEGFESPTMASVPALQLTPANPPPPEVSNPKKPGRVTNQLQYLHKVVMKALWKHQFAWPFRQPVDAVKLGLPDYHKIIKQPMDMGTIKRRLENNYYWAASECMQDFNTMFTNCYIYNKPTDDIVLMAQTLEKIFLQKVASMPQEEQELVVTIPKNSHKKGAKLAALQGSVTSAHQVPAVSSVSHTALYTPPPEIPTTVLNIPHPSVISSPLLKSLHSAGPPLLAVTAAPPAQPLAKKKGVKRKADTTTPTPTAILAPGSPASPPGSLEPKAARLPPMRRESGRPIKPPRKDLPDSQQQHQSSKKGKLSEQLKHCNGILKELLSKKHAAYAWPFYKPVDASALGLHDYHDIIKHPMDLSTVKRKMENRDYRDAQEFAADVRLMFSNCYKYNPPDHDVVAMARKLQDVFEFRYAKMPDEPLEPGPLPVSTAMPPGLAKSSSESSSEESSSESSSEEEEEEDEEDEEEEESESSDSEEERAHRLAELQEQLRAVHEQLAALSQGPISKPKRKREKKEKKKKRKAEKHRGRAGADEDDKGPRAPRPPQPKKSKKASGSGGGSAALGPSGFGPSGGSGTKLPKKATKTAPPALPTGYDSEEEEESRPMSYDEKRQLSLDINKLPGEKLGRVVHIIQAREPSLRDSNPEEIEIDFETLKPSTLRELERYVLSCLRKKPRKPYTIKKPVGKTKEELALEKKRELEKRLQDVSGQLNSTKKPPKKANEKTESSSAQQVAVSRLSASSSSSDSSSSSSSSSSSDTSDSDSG
Chain of Protein polybromo-1 (Homo sapiens) (Q86U86 whole entry): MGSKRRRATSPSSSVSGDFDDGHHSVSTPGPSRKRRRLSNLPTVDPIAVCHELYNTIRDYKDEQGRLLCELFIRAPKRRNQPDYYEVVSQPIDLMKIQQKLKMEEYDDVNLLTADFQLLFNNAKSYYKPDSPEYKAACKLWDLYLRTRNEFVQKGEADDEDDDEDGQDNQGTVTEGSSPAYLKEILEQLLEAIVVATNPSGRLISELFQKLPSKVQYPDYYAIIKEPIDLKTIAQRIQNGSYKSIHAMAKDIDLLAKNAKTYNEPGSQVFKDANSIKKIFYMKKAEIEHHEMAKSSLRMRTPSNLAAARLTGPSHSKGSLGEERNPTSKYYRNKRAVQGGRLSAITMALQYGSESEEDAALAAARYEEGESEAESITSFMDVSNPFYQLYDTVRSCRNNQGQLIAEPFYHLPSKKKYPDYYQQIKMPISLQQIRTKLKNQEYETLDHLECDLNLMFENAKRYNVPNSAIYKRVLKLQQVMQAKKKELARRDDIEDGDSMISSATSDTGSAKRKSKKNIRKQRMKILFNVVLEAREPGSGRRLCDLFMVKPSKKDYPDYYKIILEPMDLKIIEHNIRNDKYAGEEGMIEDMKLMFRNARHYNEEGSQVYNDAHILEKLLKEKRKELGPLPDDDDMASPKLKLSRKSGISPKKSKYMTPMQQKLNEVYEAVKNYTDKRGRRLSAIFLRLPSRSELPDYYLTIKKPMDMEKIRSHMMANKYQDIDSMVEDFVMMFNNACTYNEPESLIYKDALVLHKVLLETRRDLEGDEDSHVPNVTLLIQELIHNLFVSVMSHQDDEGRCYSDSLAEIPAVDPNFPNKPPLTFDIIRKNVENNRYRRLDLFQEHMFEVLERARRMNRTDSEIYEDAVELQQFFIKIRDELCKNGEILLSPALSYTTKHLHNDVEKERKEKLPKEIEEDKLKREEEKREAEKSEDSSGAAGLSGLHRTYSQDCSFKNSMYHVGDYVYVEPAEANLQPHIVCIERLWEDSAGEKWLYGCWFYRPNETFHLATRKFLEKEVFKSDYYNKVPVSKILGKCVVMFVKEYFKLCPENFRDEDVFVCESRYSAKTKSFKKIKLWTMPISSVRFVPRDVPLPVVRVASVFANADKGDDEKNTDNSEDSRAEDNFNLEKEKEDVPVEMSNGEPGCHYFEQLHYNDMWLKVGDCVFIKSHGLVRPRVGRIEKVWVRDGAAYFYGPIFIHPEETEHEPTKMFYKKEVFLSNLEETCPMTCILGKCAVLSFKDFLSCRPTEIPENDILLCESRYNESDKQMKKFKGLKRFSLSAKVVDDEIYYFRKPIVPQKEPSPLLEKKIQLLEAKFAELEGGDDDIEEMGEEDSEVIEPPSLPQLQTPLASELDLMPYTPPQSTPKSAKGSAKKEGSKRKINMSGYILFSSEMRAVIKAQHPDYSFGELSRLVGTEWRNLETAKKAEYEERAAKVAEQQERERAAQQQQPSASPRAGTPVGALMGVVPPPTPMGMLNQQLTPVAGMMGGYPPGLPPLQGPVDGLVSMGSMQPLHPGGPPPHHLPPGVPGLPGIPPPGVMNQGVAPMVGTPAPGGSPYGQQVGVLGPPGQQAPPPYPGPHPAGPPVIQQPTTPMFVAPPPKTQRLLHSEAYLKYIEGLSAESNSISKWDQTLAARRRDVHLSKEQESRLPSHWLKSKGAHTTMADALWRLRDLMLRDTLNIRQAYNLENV
Chain of Beta-1 adrenergic receptor (Homo sapiens) (P08588 whole entry, looked up): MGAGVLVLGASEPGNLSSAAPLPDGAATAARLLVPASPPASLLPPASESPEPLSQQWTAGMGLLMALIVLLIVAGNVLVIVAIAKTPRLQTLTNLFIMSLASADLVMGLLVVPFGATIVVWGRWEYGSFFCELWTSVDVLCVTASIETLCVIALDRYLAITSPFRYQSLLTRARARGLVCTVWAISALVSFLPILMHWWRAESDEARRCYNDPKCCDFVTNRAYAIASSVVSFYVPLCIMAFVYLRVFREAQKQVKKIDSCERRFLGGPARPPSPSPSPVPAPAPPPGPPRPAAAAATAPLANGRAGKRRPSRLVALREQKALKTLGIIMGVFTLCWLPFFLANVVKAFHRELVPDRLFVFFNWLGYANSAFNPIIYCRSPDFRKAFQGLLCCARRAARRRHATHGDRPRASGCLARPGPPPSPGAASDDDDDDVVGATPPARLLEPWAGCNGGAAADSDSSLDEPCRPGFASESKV

- ΔTm [1]: 0.9 °C
- activity at 10 µM [2]: 124%
- TdeltaS [3]: 0.198 kcal/mol
- Activity [4]: 92.6%
- ΔTm (Homo sapiens [5]): 0.2 °C
- ΔTm [6]: 0.8 °C
- TdeltaS [7]: -1.2 kcal/mol
- Activity (Homo sapiens [8]): 95.3%
- deltaS [9]: -0.004 kcal/mol/K
- ΔTm [10]: 0.3 °C
- ΔTm [11]: 0.14 °C
- ΔTm [12]: 1.2 °C
- ΔTm [13]: 1 °C
- deltaG [14]: -7.13 kcal/mol
- IC50 [15]: Not Active
- ΔTm [16]: 0.2 °C
- ΔTm [17]: 0.1 °C
SMILES: COc1cc2c(cc1NS(=O)(=O)c1ccc(Br)cc1C)n(C)c(=O)n2C

Source: ChEMBL document CHEMBL5715956, “Selective Targeting of Bromodomains of the Bromodomain-PHD Fingers Family Impairs Osteoclast Differentiation” (ACS Chem Biol, 2017)
